Literature values, collected in patent US20240261238A1, “METHOD OF TREATING DRUG RESISTANT EPILEPSY” (ICAHN SCHOOL OF MEDICINE AT MOUNT SINAI, priority 2021, published 2024).

What was measured:
[1] = intranasal for treatment of pain vs intravenous ketamine studies in depression
[2] = 0.5 mg/kg intravenous infusion given over 40 minutes
[3] = intranasal, total dose
NMDA receptors = details: read-out: Ki for binding to NMDA receptors
[4] = iontophoretic patch, 33 men and women

Question: For `CNC1(c2ccccc2Cl)CCCCC1=O` (racemic) [ketamine, 2-(2-chlorophenyl)-2-(methylamino)-cyclohexanone], which “intranasal plasma levels lower than in intravenous studies” value [1] is on record?
Answer: 3-4 fold

Question: And the “serious adverse events caused by IV administration” value?
Answer: No serious adverse events

Question: And the “time by which side effects typically abate post-infusion” value (IV, euphoria, elevated BP, increased libido, perceptual disturbances)?
Answer: ≤ 80 min

Question: What about the “duration of improvements in depression” value [2] of the same molecule?
Answer: up to 1 week

Question: And the serious adverse events [2]?
Answer: no serious adverse events

Question: And the “time to improvements in depression post-injection” value [2]?
Answer: ≤ 2 h

Question: And the “dose at which mild adverse effects (dysphoria and/or hallucinations) can occur” value [3]?
Answer: greater than 50 mg

Question: What about the “dose usually required for mild adverse effects (dysphoria and/or hallucinations)” value [3] of the same molecule?
Answer: greater than 100 mg

Question: With `CN[C@]1(c2ccccc2Cl)CCCCC1=O` [S(+)-ketamine] as the molecule, how does the Ki (NMDA receptors) read?
Answer: 3.2 µM

Question: And the “potency relative to racemic mixture of ketamine” value [4]?
Answer: two times more potent

Question: With `CN[C@@]1(c2ccccc2Cl)CCCCC1=O` [R(−)] as the molecule, how does the Ki (NMDA receptors) read?
Answer: 1.1 µM
